Target: P2X7 (Homo sapiens (Human), UniProt Q99572)
Experiment: P2X7 antagonism in human PBMCs (LPS + Bz-ATP induced IL-1β release, ELISA);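 also: PBMCs from donor human blood, with a further 1.5 h incubation of the cells in the assay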
Assay type: cell-based
Conditions: compound 1 μM, LPS 30 ng/ml, Bz-ATP 0.5 mM

Chain of P2X7 (Q99572 whole entry): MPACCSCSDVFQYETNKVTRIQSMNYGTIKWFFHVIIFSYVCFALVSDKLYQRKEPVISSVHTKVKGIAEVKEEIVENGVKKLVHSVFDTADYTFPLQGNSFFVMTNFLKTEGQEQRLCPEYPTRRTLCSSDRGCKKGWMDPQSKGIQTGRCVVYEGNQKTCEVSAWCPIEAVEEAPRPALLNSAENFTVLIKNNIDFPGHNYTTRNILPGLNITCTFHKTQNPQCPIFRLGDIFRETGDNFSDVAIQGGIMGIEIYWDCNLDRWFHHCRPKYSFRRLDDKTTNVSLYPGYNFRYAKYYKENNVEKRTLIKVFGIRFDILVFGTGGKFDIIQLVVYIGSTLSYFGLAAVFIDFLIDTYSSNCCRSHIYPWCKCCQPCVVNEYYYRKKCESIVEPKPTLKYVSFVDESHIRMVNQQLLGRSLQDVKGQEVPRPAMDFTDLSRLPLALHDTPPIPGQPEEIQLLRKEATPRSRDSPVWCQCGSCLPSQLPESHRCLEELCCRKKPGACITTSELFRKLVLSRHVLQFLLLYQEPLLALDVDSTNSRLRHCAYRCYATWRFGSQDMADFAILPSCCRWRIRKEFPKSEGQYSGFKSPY

Row | PBMC 1 μM (% control) | SMILES
1 | 93.5 % control | O=C(c1cccc(C(F)(F)F)c1Cl)N1C=Cc2c(ncn2-c2ccccc2)C1 [Example 49, 5-{[2-Chloro-3-(trifluoromethyl)phenyl]carbonyl}-1-phenyl-4,5-dihydro-1H-imidazo[4,5-c]pyridine]
2 | 87.0 % control | O=C(c1cccc(C(F)(F)F)c1Cl)N1CCc2c(ncn2-c2ccccc2)C1CO (centres unmarked) [Example 30, (5-{[2-Chloro-3-(trifluoromethyl)phenyl]carbonyl}-1-phenyl-4,5,6,7-tetrahydro-1H-imidazo[4,5-c]pyridin-4-yl)methanol]
3 | 18.0 % control | Cn1nc2c(c1-c1ccccc1)CCN(C(=O)c1cccc(Cl)c1Cl)C2 [Example 102, 6-[(2,3-Dichlorophenyl)carbonyl]-2-methyl-3-phenyl-4,5,6,7-tetrahydro-2H-pyrazolo[3,4-c]pyridine]
4 | 51.0 % control | Cn1nc2c(c1-c1ccc(F)cc1)CCN(C(=O)c1cccc(C(F)(F)F)c1Cl)C2 [Example 105, 6-{[2-Chloro-3-(trifluoromethyl)phenyl]carbonyl}-3-(4-fluorophenyl)-2-methyl-4,5,6,7-tetrahydro-2H-pyrazolo[3,4-c]pyridine]
5 | 23.0 % control | O=C(c1cccc(Cl)c1Cl)N1CCc2c(ncn2-c2ccccc2)C1 [Example 3, (2,3-Dichlorophenyl)(1-phenyl-6,7-dihydro-1H-imidazo[4,5-c]pyridin-5(4H)-yl)methanone]
6 | 6.1 % control | O=C(c1cccc(C(F)(F)F)c1Cl)N1CCc2c(nnn2-c2cnccn2)C1 [Example 91, 5-{[2-Chloro-3-(trifluoromethyl)phenyl]carbonyl}-1-pyrazin-2-yl-4,5,6,7-tetrahydro-1H-[1,2,3]triazolo[4,5-c]pyridine]
7 | 83.7 % control | O=C(c1cccc(Cl)c1Cl)N1CCc2ncn(-c3ccccn3)c2C1 [Example 9, (2,3-Dichlorophenyl)(3-(pyridin-2-yl)-6,7-dihydro-3H-imidazo[4,5-c]pyridin-5(4H)-yl)methanone]
8 | 83.1 % control | O=C(c1cccc(C(F)(F)F)c1Cl)N1CCc2ncn(-c3ccccn3)c2C1 [Example 8, (2-Chloro-3-(trifluoromethyl)phenyl)(3-(pyridin-2-yl)-6,7-dihydro-3H-imidazo[4,5-c]pyridin-5(4H)-yl)methanone]
9 | 90.1 % control | O=C(c1cccc(C(F)(F)F)c1Cl)N1CCc2nc[nH]c2C1 [Example 48, 5-{[2-Chloro-3-(trifluoromethyl)phenyl]carbonyl}-4,5,6,7-tetrahydro-3H-imidazo[4,5-c]pyridine]
10 | 100.7 % control | O=C(O)C1c2ncn(-c3ccccn3)c2CCN1C(=O)c1cccc(C(F)(F)F)c1Cl (centres unmarked) [Example 33, 5-{[2-Chloro-3-(trifluoromethyl)phenyl]carbonyl}-1-pyridin-2-yl-4,5,6,7-tetrahydro-1H-imidazo[4,5-c]pyridine-4-carboxylic acid]

Same assay, conditions: compound 10 μM, LPS 30 ng/ml, Bz-ATP 0.5 mM

Row | SMILES | PBMC 10 μM (% control)
11 | CC1c2nnn(-c3cc[nH]n3)c2CCN1C(=O)c1cccc(C(F)(F)F)c1Cl (centres unmarked) [Example 85, 5-{[2-Chloro-3-(trifluoromethyl)phenyl]carbonyl}-4-methyl-1-(1H-pyrazol-3-yl)-4,5,6,7-tetrahydro-1H-[1,2,3]triazolo[4,5-c]pyridine] | 24.7 % control
12 | O=C(c1cccc(C(F)(F)F)c1Cl)N1CCc2c(ncn2-c2ccc(F)cn2)C1 [Example 315, (2-chloro-3-(trifluoromethyl)phenyl)(1-(5-fluoropyridin-2-yl)-6,7-dihydro-1H-imidazo[4,5-c]pyridin-5(4H)-yl)methanone] | 8.8 % control
13 | C[C@@H]1Cc2c(nnn2-c2ccn[nH]2)[C@H](C)N1C(=O)c1cccc(C(F)(F)F)c1Cl [Example 297, (2-chloro-3-(trifluoromethyl)phenyl)((4S,6R)-4,6-dimethyl-1-(1H-pyrazol-5-yl)-6,7-dihydro-1H-[1,2,3]triazolo[4,5-c]pyridin-5(4H)-yl)methanone] | 2.6 % control
14 | C[C@@H]1Cc2c(nnn2-c2ccccn2)CN1C(=O)c1cccc(C(F)(F)F)c1Cl (single isomer, unassigned) [Example 119, 5-{[2-Chloro-3-(trifluoromethyl)phenyl]carbonyl}-(R*)-6-methyl-1-pyridin-2-yl-4,5,6,7-tetrahydro-1H-[1,2,3]triazolo[4,5-c]pyridine] | 20.0 % control

Second part, the molecule after the results:

Row | PBMC 10 μM (% control) | SMILES
15 | 63.6 % control | CC1Cc2c(nnn2-c2ncc(F)cn2)CN1C(=O)c1cccc(C(F)(F)F)c1F (centres unmarked) [Example 311, (2-fluoro-3-(trifluoromethyl)phenyl)(1-(5-fluoropyrimidin-2-yl)-6-methyl-6,7-dihydro-1H-[1,2,3]triazolo[4,5-c]pyridin-5(4H)-yl)methanone]
16 | −0.7 % control | CCc1nc2c(n1-c1ccccc1)CCN(C(=O)c1cccc(C(F)(F)F)c1Cl)C2C (centres unmarked) [Example 184, (2-Chloro-3-(trifluoromethyl)phenyl)(2-ethyl-4-methyl-1-phenyl-6,7-dihydro-1H-imidazo[4,5-c]pyridin-5(4H)-yl)methanone]
17 | 44.7 % control | C[C@@H]1c2ncn(-c3ccccn3)c2CCN1C(=O)c1cccc(C(F)(F)F)c1Cl (single isomer, unassigned) [Example 44, (4R*)-5-{[2-Chloro-3-(trifluoromethyl)phenyl]carbonyl}-4-methyl-1-pyridin-2-yl-4,5,6,7-tetrahydro-1H-imidazo[4,5-c]pyridine]
18 | 58.0 % control | C[C@@H]1c2nnn(-c3cnccn3)c2CCN1C(=O)c1ccc(F)c(Cl)c1Cl (single isomer, unassigned) [Example 143, (R*)-(2,3-Dichloro-4-fluorophenyl)(4-methyl-1-(pyrazin-2-yl)-6,7-dihydro-1H-[1,2,3]triazolo[4,5-c]pyridin-5(4H)-yl)methanone]
19 | 103.3 % control | C[C@H]1c2n[nH]c(-c3ncc(F)cn3)c2CCN1C(=O)c1cccc(C(F)(F)F)c1Cl (single isomer, unassigned) [Example 224, (S*)-(2-chloro-3-(trifluoromethyl)phenyl)(3-(5-fluoropyrimidin-2-yl)-7-methyl-4,5-dihydro-2H-pyrazolo[3,4-c]pyridin-6(7H)-yl)methanone]
20 | 25.2 % control | CC1c2ncn(-c3ccc(F)cn3)c2CCN1C(=O)c1cccc(C(F)(F)F)c1Cl (centres unmarked) [Example 11, (2-Chloro-3-(trifluoromethyl)phenyl)(1-(5-fluoropyridin-2-yl)-4-methyl-6,7-dihydro-1H-imidazo[4,5-c]pyridin-5(4H)-yl)methanone]
21 | −4.2 % control | C[C@H]1Cc2c(nnn2-c2ncccc2F)CN1C(=O)c1cccc(C(F)(F)F)c1Cl (single isomer, unassigned) [Example 168, (6S*)-5-{[2-Chloro-3-(trifluoromethyl)phenyl]carbonyl}-1-(3-fluoropyridin-2-yl)-6-methyl-4,5,6,7-tetrahydro-1H-[1,2,3]triazolo[4,5-c]pyridine]
22 | 86.9 % control | Cc1ccc(-n2nnc3c2CCN(C(=O)c2cccc(C(F)(F)F)c2Cl)[C@H]3C)nc1 (single isomer, unassigned) [Example 239, (S*)-(2-chloro-3-(trifluoromethyl)phenyl)(4-methyl-1-(5-methylpyridin-2-yl)-6,7-dihydro-1H-[1,2,3]triazolo[4,5-c]pyridin-5(4H)-yl)methanone]
23 | −3.7 % control | Cc1ccnc(-n2nnc3c2CCN(C(=O)c2cccc(C(F)(F)F)c2Cl)[C@@H]3C)c1 (single isomer, unassigned) [Example 185, (R*)-(2-chloro-3-(trifluoromethyl)phenyl)(4-methyl-1-(4-methylpyridin-2-yl)-6,7-dihydro-1H-[1,2,3]triazolo[4,5-c]pyridin-5(4H)-yl)methanone]
24 | 1.1 % control | C[C@@H]1c2nnn(-c3ncc(F)cn3)c2CCN1C(=O)c1cccc(C(F)(F)F)c1Cl (single isomer, unassigned) [Example 158, (R*)-(2-Chloro-3-(trifluoromethyl)phenyl)(1-(5-fluoropyrimidin-2-yl)-4-methyl-6,7-dihydro-1H-[1,2,3]triazolo[4,5-c]pyridin-5(4H)-yl)methanone]
25 | 1.5 % control | Cc1ccnc(-n2nnc3c2CCN(C(=O)c2cccc(C(F)(F)F)c2Cl)C3C)c1 (centres unmarked) [Example 299, (2-chloro-3-(trifluoromethyl)phenyl)(4-methyl-1-(4-methylpyridin-2-yl)-6,7-dihydro-1H-[1,2,3]triazolo[4,5-c]pyridin-5(4H)-yl)methanone]
26 | −1.4 % control | C[C@H]1c2nnn(-c3ncc(F)cn3)c2CCN1C(=O)c1cccc(C(F)(F)F)c1Cl (single isomer, unassigned) [Example 157, (S*)-(2-Chloro-3-(trifluoromethyl)phenyl)(1-(5-fluoropyrimidin-2-yl)-4-methyl-6,7-dihydro-1H-[1,2,3]triazolo[4,5-c]pyridin-5(4H)-yl)methanone]
27 | 1.4 % control | C[C@@H]1Cc2c(nnn2-c2ccn[nH]2)[C@H](C)N1C(=O)c1cccc(C(F)(F)F)c1Cl [Example 309, (2-chloro-3-(trifluoromethyl)phenyl)((4S,6R)-4,6-dimethyl-1-(1H-pyrazol-5-yl)-6,7-dihydro-1H-[1,2,3]triazolo[4,5-c]pyridin-5(4H)-yl)methanone]
28 | 20.4 % control | C[C@@H]1Cc2c(nnn2-c2ncc(F)cn2)CN1C(=O)c1cccc(C(F)(F)F)c1Cl (single isomer, unassigned) [Example 201, (6R*)-5-{[2-Chloro-3-(trifluoromethyl)phenyl]carbonyl}-1-(5-fluoropyrimidin-2-yl)-6-methyl-4,5,6,7-tetrahydro-1H-[1,2,3]triazolo[4,5-c]pyridine]
29 | −0.6 % control | Cc1c(C(=O)N2Cc3nnn(-c4ncc(F)cn4)c3C[C@H]2C)ccnc1C(F)(F)F (single isomer, unassigned) [Example 187, (S*)-(1-(5-fluoropyrimidin-2-yl)-6-methyl-6,7-dihydro-1H-[1,2,3]triazolo[4,5-c]pyridin-5(4H)-yl)(3-methyl-2-(trifluoromethyl)pyridin-4-yl)methanone]
